For orientation: IC50 means the concentration needed to halve the response being measured.

A value given as a limit tells only on which side of the number the result lay.

This test concerns THP1 cells (LPS induced TNF release). Nature of the test: Lipopolysaccharide-Activated THP1 Cell TNF Production Assay. It is filed as cell-based. The following applies: Homo sapiens, THP-1; THP1 cells, bacterial LPS, secreted TNF-α after 3 h at 37° C.; read-out: IC50 values in the THP1 cell assay (LPS induced TNF release). In short, it runs like this: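 THP1 cells at 1E6/mL were treated with 3-fold serial compound dilutions and LPS (1 μg/mL stock) for 3 h at 37 °C. Secreted TNF-α was quantified by electrochemiluminescent sandwich immunoassay. Percent of DMSO control versus concentration was fitted to a 4-parameter equation.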
`CN(c1ccnc(NC(C)(C)CNC(=O)OC(C)(C)C)n1)c1cc(-c2ccccc2)cc(=O)n1C` [Example 161, tert-Butyl 2-methyl-2-(4-(methyl(1-methyl-6-oxo-4-phenyl-1,6-dihydropyridin-2-yl)amino)pyrimidin-2-ylamino)propylcarbamate]: the IC50 is no more than 20 µM. Next, `CN(c1ccnc(NCCc2cccnc2)n1)c1ccnc(-c2ccsc2)n1` [Example 74, N^4-Methyl-N^2-(2-(pyridin-3-yl)ethyl)-N^4-(2-(thiophen-3-yl)pyrimidin-4-yl)-pyrimidine-2,4-diamine]: no more than 20 µM. Next, `CN(c1ccnc(NCCc2cccnc2)n1)c1ccnc(-c2cccc(F)c2)n1` [Example 72, N^4-(2-(3-Fluorophenyl)pyrimidin-4-yl)-N^4-methyl-N^2-(2-(pyridin-3-yl)ethyl)-pyrimidine-2,4-diamine]: no more than 20 µM; `COc1nc(-c2ccccc2)nc(N(C)c2ccnc(N[C@@H](C)Cc3cccc(CNC(=O)[C@H](C)N)c3)n2)n1` [Example 125, (S)-N-((S)-3-((S)-2-(4-((4-Methoxy-6-phenyl-1,3,5-triazin-2-yl)(methyl)amino)-pyrimidin-2-ylamino)propyl)benzyl)-2-aminopropanamide]: no more than 20 µM; `CN(c1cccc(-c2cc(F)cc(F)c2)n1)c1ccnc(NCCc2ccccc2)n1` [Example 143, N^4-(6-(3,5-Difluorophenyl)pyridin-2-yl)-N^4-methyl-N^2-phenethylpyrimidine-2,4-diamine]: no more than 20 µM. Take `CN(c1ccnc(NCC(c2cccnc2)N2CCOCC2)n1)c1ccnc(-c2ccccc2)n1` (stereo not drawn) [Example 108, N^4-Methyl-N^2-(2-morpholino-2-(pyridin-3-yl)ethyl)-N^4-(2-phenylpyrimidin-4-yl)pyrimidine-2,4-diamine]: the IC50 is no more than 20 µM.

Source of the values: patent publication US20060069110A1, “Substituted heterocyclic compounds and methods of use” (priority 2004, published 2006).
